This is an account of results in US9695154B2, “Heteroaryl inhibitors of sumo activating enzyme” (MILLENNIUM PHARMACEUTICALS, INC., priority 2013, dated 2017).

pIC50: −log10 of the molar value.

Usually pIC50 stands for −log10 of the IC50, conventionally taken in molar units. The inhibition is the share of the control response that was lost under treatment.

This experiment addresses T1, recombinant human SAE enzyme (Homo sapiens, UniProt Q9UBT2).
T1 sequence (Q9UBT2 1-640): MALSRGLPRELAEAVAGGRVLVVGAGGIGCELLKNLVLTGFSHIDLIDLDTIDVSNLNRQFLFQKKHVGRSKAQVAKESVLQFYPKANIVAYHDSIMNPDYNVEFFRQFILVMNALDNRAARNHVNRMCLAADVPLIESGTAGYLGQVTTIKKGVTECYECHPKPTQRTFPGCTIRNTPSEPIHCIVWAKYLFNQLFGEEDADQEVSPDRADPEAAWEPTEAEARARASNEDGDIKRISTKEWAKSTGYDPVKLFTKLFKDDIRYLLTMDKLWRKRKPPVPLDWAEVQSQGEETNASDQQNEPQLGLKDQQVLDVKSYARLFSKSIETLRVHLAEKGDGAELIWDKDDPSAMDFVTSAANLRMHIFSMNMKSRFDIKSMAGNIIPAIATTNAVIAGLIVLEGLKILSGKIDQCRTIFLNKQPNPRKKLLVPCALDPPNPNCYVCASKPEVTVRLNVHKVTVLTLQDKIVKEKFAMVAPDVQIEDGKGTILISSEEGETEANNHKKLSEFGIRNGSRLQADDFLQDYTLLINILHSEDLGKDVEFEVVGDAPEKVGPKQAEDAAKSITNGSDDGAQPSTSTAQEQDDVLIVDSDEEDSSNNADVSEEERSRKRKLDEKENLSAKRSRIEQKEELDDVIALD
T1 sequence (Q9UBE0 1-346 partner): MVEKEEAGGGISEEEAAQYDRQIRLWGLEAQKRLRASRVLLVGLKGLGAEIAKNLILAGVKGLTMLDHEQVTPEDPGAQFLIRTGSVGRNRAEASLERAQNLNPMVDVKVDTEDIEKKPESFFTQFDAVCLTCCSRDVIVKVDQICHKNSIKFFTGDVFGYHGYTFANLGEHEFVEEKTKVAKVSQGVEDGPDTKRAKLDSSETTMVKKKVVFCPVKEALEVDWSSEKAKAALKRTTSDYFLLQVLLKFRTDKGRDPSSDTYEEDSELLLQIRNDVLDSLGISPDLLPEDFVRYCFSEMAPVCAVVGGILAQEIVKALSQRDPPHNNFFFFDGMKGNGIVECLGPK
Nature of the experiment: SAE HTRF Enzyme Assay. The conditions noted are these: for pIC50: class symbols A-C; for inhibition at 0.111 µM: compound concentration 0.111 μM, read-out: Percent Inhibition. The format is biochemical. In short, it runs like this: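 Measured as FRET after a 2 h antibody step: SAE (0.11 nM) thioester transfer of Sumo-Flag to Ubc9-GST, 0.5 μM ATP, 24° C for 105 min, quenched with 20 mM EDTA. Output is IC50 or percent inhibition at a single concentration.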
Background: In TR-FRET formats the signal depends on donor and acceptor labels being close together.

As for `NS(=O)(=O)OC[C@H]1C[C@@H](Nc2ncncc2C(=O)c2ccn(CC(=O)c3cccc(Cl)c3)n2)[C@H](O)[C@@H]1O` [Compound I-283, [(1R,2R,3S,4R)-4-{[5-({1-[2-(3-chlorophenyl)-2-oxoethyl]-1H-pyrazol-3-yl}carbonyl)pyrimidin-4-yl]amino}-2,3-dihydroxyoyclopentyl]methyl sulfamate], the pIC50 was more than 8.00 and the inhibition at 0.111 µM stood at 97%.
Regarding `NS(=O)(=O)OC[C@H]1C[C@@H](Nc2ncncc2C(=O)c2ccn(Cc3cccc(Br)n3)n2)[C@H](O)[C@@H]1O` [Compound I-284, [(1R,2R,3S,4R)-4-{[5-({1-[(6-bromopyridin-2-yl)methyl]-1H-pyrazol-3-yl}carbonyl)pyrimidin-4-yl]amino}-2,3-dihydroxycyclopentyl]methyl sulfamate], the pIC50 is more than 8.00 and the inhibition at 0.111 µM stood at 100%.
Taken in the same sequence, the figures for `NS(=O)(=O)OC[C@H]1C[C@@H](Nc2ncncc2C(=O)c2ccn(Cc3csc4ccc(Cl)cc34)n2)[C@H](O)[C@@H]1O` [Compound I-285, [(1R,2R,3S,4R)-4-{[5-({1-[(5-chloro-1-benzothiophen-3-yl)methyl]-1H-pyrazol-3-yl}carbonyl)pyrimidin-4-yl]amino}-2,3-dihydroxycyclopentyl]methyl sulfamate] were more than 8.00 and 99%.
Turning to `NS(=O)(=O)OC[C@H]1C[C@@H](Nc2ncncc2C(=O)c2ccn(Cc3c(F)cc(F)cc3F)n2)C[C@@H]1O` [Compound I-286, {(1R,2S,4R)-2-hydroxy-4-[(5-{[1-(2,4,6-trifluorobenzyl)-1H-pyrazol-3-yl]carbonyl}pyrimidin-4-yl)amino]cyclopentyl}methyl sulfamate], the pIC50 is more than 8.00 and the inhibition at 0.111 µM turned out to be 93%.
Take `NS(=O)(=O)OC[C@H]1C[C@@H](Nc2ncncc2C(=O)c2ccn(CC#CC3CC3)n2)C[C@@H]1O` [Compound I-287, {(1R,2S,4R)-4-[(5-{[1-(3-cyclopropylprop-2-yn-1-yl)-1H-pyrazol-3-yl]carbonyl}pyrimidin-4-yl)amino]-2-hydroxycyclopentyl}methyl sulfamate]: the pIC50 was more than 8.00 and the inhibition at 0.111 µM was determined as 95%.
For `NS(=O)(=O)OC[C@H]1C[C@@H](Nc2ncncc2C(=O)c2ccn(Cc3ccc(Cl)c(C(F)(F)F)c3)n2)C[C@@H]1O` [Compound I-288, [(1R,2S,4R)-4-{[5-({1-[4-chloro-3-(trifluoromethyl)benzyl]-1H-pyrazol-3-yl}carbonyl)pyrimidin-4-yl]amino}-2-hydroxycyclopentyl]methyl sulfamate], the pIC50 is more than 8.00 and the inhibition at 0.111 µM was found to be 97%.
As for `NS(=O)(=O)OC[C@H]1C[C@@H](Nc2ncncc2C(=O)c2ccn(Cc3cc(Cl)ccc3Cl)n2)C[C@@H]1O` [Compound I-289, {(1R,2S,4R)-4-[(5-{[1-(2,5-dichlorobenzyl)-1H-pyrazol-3-yl]carbonyl}pyrimidin-4-yl)amino]-2-hydroxycyclopentyl}methyl sulfamate], the pIC50 is more than 8.00 and the inhibition at 0.111 µM is 98%.
Taken in the same sequence, the figures for `NS(=O)(=O)OC[C@H]1C[C@@H](Nc2ncncc2C(=O)c2ccn(Cc3ccc(F)c(Br)c3)n2)[C@H](O)[C@@H]1O` [Compound I-290, {(1R,2R,3S,4R)-4-[(5-{[1-(3-bromo-4-fluorobenzyl)-1H-pyrazol-3-yl]carbonyl}pyrimidin-4-yl)amino]-2,3-dihydroxycyclopentyl}methyl sulfamate] were more than 8.00 and 99%.
With `C=CCn1ccc(C(=O)c2cncnc2N[C@@H]2C[C@H](COS(N)(=O)=O)[C@@H](O)C2)c1` [Compound I-291, [(1R,2S,4R)-4-({5-[(1-allyl-1H-pyrrol-3-yl)carbonyl]pyrimidin-4-yl}amino)-2-hydroxycyclopentyl]methyl sulfamate], the negative-log IC50 (pIC50) was 7.00 to 8.00 and the inhibition at 0.111 µM was 79%.
Taken in the same sequence, the figures for `NS(=O)(=O)OC[C@H]1C[C@@H](Nc2ncncc2C(=O)c2ccn(Cc3cccc(I)c3)n2)C[C@@H]1O` [Compound I-292, {(1R,2S,4R)-2-Hydroxy-4-[(5-{[1-(3-iodobenzyl)-1H-pyrazol-3-yl]carbonyl}pyrimidin-4-yl)amino]cyclopentyl}methyl sulfamate] were more than 8.00 and 98%.
Take `Cc1cc(C(=O)c2cncnc2N[C@@H]2C[C@H](COS(N)(=O)=O)[C@@H](O)[C@@H]2F)nn1Cc1cccc(I)c1` [Compound I-294, {(1R,2R,3R,4R)-3-fluoro-2-hydroxy-4-[(5-{[1-(3-iodobenzyl)-5-methyl-1H-pyrazol-3-yl]carbonyl}pyrimidin-4-yl)amino]cyclopentyl}methyl sulfamate]: the negative-log IC50 (pIC50) is more than 8.00 and the inhibition at 0.111 µM stood at 100%.
For the compound `COc1cccc(Cn2ccc(C(=O)c3cncnc3N[C@@H]3C[C@H](COS(N)(=O)=O)[C@@H](O)C3)n2)n1` [Compound I-295, [(1R,2S,4R)-2-hydroxy-4-{[5-({1-[(6-methoxypyridin-2-yl)methyl]-1H-pyrazol-3-yl}carbonyl)pyrimidin-4-yl]amino}cyclopentyl]methyl sulfamate], the negative logarithm of the IC50 (pIC50) is more than 8.00 and the inhibition at 0.111 µM amounted to 96%.
Take `NS(=O)(=O)OC[C@H]1C[C@@H](Nc2ncncc2C(=O)c2ccn(Cc3ccc(Cl)o3)c2)[C@@H](F)[C@@H]1O` [Compound I-296, [(1R,2R,3R,4R)-4-{[5-({1-[(5-chloro-2-furyl)methyl]-1H-pyrrol-3-yl}carbonyl)pyrimidin-4-yl]amino}-3-fluoro-2-hydroxycyclopentyl]methyl sulfamate]: the pIC50 is more than 8.00 and the inhibition at 0.111 µM came to 100%.
The corresponding values for `Cc1cc(Cn2ccc(C(=O)c3cncnc3N[C@@H]3C[C@H](COS(N)(=O)=O)[C@@H](O)[C@@H]3F)c2)no1` [Compound I-297, [(1R,2R,3R,4R)-3-fluoro-2-hydroxy-4-{[5-({1-[(5-methylisoxazol-3-yl)methyl]-1H-pyrrol-3-yl}carbonyl)pyrimidin-4-yl]amino}cyclopentyl]methyl sulfamate] are more than 8.00 and 97%.
Taken in the same sequence, the figures for `Cc1cccc(Cn2ccc(C(=O)c3cncnc3N[C@@H]3C[C@H](COS(N)(=O)=O)[C@@H](O)C3)n2)n1` [Compound I-298, [(1R,2S,4R)-2-hydroxy-4-{[5-({1-[(6-methylpyridin-2-yl)methyl]-1H-pyrazol-3-yl}carbonyl)pyrimidin-4-yl]amino}cyclopentyl]methyl sulfamate] were more than 8.00 and 97%.
As for `NS(=O)(=O)OC[C@H]1C[C@@H](Nc2ncncc2C(=O)c2ccn(Cc3cncc(Br)c3)c2)C[C@@H]1O` [Compound I-299, [(1R,2S,4R)-4-{[5-({1-[(5-Bromopyridin-3-yl)methyl]-1H-pyrrol-3-yl}carbonyl)pyrimidin-4-yl]amino}-2-hydroxycyclopentyl]methyl sulfamate], the pIC50 was more than 8.00 and the inhibition at 0.111 µM is 99%.
For the compound `NS(=O)(=O)OC[C@H]1C[C@@H](Nc2ncncc2C(=O)c2ccn(Cc3ccccc3)c2)C[C@@H]1O` [Compound I-300, [(1R,2S,4R)-4-({5-[(1-Benzyl-1H-pyrrol-3-yl)carbonyl]pyrimidin-4-yl}amino)-2-hydroxycyclopentyl]methyl sulfamate], the pIC50 was more than 8.00 and the inhibition at 0.111 µM was 97%.
The corresponding values for `NS(=O)(=O)OC[C@H]1C[C@@H](Nc2ncncc2C(=O)c2ccn(Cc3ccc(F)c(C4CC4)c3)n2)C[C@@H]1O` [Compound I-301, {(1R,2S,4R)-4-[(5-{[1-(3-cyclopropyl-4-fluorobenzyl)-1H-pyrazol-3-yl]carbonyl}pyrimidin-4-yl)amino]-2-hydroxycyclopentyl}methyl sulfamate] are more than 8.00 and 97%.
On to `NS(=O)(=O)OC[C@H]1C[C@@H](Nc2ncncc2C(=O)c2ccn(Cc3cccc(OC(F)F)c3)n2)[C@@H](F)[C@@H]1O` [Compound I-303, [(1R,2R,3R,4R)-4-{[5-({1-[3-(difluoromethoxy)benzyl]-1H-pyrazol-3-yl}carbonyl)pyrimidin-4-yl]amino}-3-fluoro-2-hydroxycyclopentyl]methyl sulfamate], for which the pIC50 was more than 8.00 and the inhibition at 0.111 µM amounted to 99%.
